From ChEMBL document CHEMBL1151318, “New secosteroids from a gorgonian of the genus Muricella” (1998)
≈ marks a conversion by molar mass, not a printed value.

Assays:
K562 = experiment: Cytotoxicity against human K562 cells; format: functional; details: read-out: LC50 (the source's name)
[1] = target: Phospholipase A2 (Homo sapiens) (UniProt P04054); experiment: Inhibition of PLA2 at 50 ug/mL
Phospholipase A2 (Homo sapiens), sequence (P04054 23-148 limits assumed): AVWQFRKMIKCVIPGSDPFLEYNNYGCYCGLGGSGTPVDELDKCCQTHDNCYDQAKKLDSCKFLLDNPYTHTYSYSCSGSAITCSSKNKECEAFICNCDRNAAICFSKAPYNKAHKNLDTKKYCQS

SMILES | CC50 (K562) | inhibition [1]
Cc1ccc(O)cc1CC[C@@H]1[C@H](O)CC[C@]2(C)[C@@H]([C@H](C)/C=C/C(C)C(C)C)CC[C@@H]12 (stereo partly drawn) [CALICOFEROL F] | 3.2 µg/mL (≈ 7.75 µM) | 
Cc1ccc(O)cc1CC[C@@H]1[C@H](O)CC[C@]2(C)[C@@H]([C@H](C)CCCC(C)C)CC[C@@H]12 [ASTROGORGIADIOL] | 12.1 µg/mL (≈ 30.2 µM) | 47%
CC(C)=CCC[C@@H](C)[C@H]1CC[C@H]2[C@H](CCc3cc(O)ccc3C)[C@H](O)CC[C@]12C [CALICOFEROL G] | 2.1 µg/mL (≈ 5.27 µM) | 55%
Cc1ccc(O)cc1CC[C@@H]1[C@H](O)CC[C@]2(C)[C@@H]([C@H](C)/C=C/C(C)C)CC[C@@H]12 [CALICOFEROL H] | 10.7 µg/mL (≈ 27.8 µM) | 67%
Cc1ccc(O)cc1CC[C@@H]1C(=O)CC[C@]2(C)[C@@H]([C@H](C)CCCC(C)C)[C@@H](O)C[C@@H]12 [CALICOFEROL I] | 9.6 µg/mL (≈ 23.2 µM) | 
